US9296759B2, “Amino-oxazine and amino-dihydrothiazine compounds as beta-secretase modulators and methods of use” (AMGEN INC., priority 2011, dated 2016)

Legend:
[1] = tested on: Aβ40 in conditioned medium of cells stably expressing Amyloid Precursor Protein (APP); assay: In vitro BACE cell-based assay (HEK cell assay, Aβ40 sandwich ELISA); details: Homo sapiens, HEK293; average IC50, Aβ40, 24 h incubation
Description: In Vitro BACE Cell-Based Assay
The cell-based assay measures inhibition or reduction of Aβ40 in conditioned medium of test compound treated cells expressing amyloid precursor protein.
Cells stably expressing Amyloid Precursor Protein (APP) were plated at a density of 40K cells/well in 96 well plates (Costar). The cells were cultivated for 24 hours at 37° C. and 5% CO2 in DMEM supplemented with 10% FBS. The test compounds were then added to cells in 10-point dose response concentrations with the starting concentration being either 100 μM or 10 μM. The compounds were diluted from stock solutions in DMSO and the final DMSO concentration of the test compounds on cells was 0.1%. After 24 h of incubation with the test compounds the supernatant conditioned media was collected and the Aβ 40 levels were determined using a sandwich ELISA. The IC50 of the compound was calculated from the percent of control or percent inhibition of Aβ 40 as a function of the concentration of the test compound.
The sandwich ELISA to detect Aβ 40 was performed in 96 well microtiter plates, which were pre-treated with goat anti-rabbit IgG (Pierce). The capture and detecting antibody pair that were used to detect Aβ 40 from cell supernatants were affinity purified pAb40 (Biosource) and biotinylated 6E10 (Signet Labs Inc.), respectively. The optimal concentration for the pAb40 antibody was 3 μg/ml in Superblock/TBS (Pierce) that was supplemented with 0.05% Tween 20 (Sigma).
Cellular supernatants were incubated with the capture antibody for 3 h at 4° C., followed by 3 wash steps in TBS-tween (0.05%). The detecting antibody incubation was for 2 h at 4° C., again followed by the wash steps as described previously. The final readout of the ELISA is Time-Resolved Fluorescence (counts per minute) using Delfia reagents Streptavidin-Europium and Enhancement solutions (Perkin Elmer) and the Victor 2 multilabel counter (Perkin Elmer).

[2] = target: BACE 1 (beta secretase enzyme) (Homo sapiens (Human), UniProt P56817); assay: In vitro enzymatic BACE FRET assay; type: biochemical; details: average IC50
BACE 1 (beta secretase enzyme), sequence (P56817 46-501): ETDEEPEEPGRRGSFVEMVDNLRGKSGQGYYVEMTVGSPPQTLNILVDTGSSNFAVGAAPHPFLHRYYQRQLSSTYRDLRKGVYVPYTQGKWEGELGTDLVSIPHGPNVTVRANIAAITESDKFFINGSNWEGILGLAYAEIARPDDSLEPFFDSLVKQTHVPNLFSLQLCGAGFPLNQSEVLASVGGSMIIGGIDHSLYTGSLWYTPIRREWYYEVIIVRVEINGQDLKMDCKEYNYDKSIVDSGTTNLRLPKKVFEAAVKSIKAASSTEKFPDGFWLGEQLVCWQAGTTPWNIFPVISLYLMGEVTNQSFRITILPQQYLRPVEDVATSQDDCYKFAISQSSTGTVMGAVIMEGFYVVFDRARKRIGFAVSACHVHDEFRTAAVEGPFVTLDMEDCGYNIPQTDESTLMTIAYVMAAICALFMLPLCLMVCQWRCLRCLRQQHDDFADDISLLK
Description: In Vitro Enzymatic BACE FRET (Fluorescence Resonance Energy Transfer) Assay
The assay buffer used in this screen is 0.05 M acetate, pH 4.2, 10% DMSO final, 100 uM genapol (which is a nonionic detergent, below its Critical Micelle Concentration). […] This assay is effectively started by the addition of FRET substrate (50 nM) and the combination is incubated for one hour. The FRET assay is terminated with by addition of Tris buffer, which raises the pH to neutrality, and the fluorescence is determined. The FRET substrate is a peptide with commercially available fluorophore and quencher, on opposite sides of the BACE cleavage site. Proteolytic cleavage of the FRET substrate releases quenching of fluorescence (excitation […] and […]).

[3] = target: Cathepsin D (Homo sapiens (Human), UniProt P07339); assay: In vitro enzymatic Cat D (Cathepsin D) FRET assay; type: biochemical; details: average IC50
Cathepsin D, sequence (P07339 65-412, species assumed): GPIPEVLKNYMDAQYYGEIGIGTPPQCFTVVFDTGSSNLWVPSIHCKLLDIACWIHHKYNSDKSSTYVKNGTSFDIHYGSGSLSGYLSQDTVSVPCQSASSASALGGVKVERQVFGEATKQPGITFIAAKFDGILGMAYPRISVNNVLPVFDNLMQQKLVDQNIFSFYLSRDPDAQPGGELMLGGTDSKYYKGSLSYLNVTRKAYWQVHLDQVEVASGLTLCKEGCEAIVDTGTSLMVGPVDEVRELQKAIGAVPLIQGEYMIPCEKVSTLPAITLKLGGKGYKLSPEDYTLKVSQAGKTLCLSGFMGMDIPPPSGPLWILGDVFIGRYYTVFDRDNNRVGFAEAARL
Description: In Vitro Enzymatic Cat D (Cathepsin D) FRET (Fluorescence Resonance Energy Transfer) Assay
Recombinant CathepsinD was expressed in CHO cells. The assay buffer for CathepsinD is 0.05 M citrate pH 3.5, 10% DMSO final, 5 mM CHAPS. […] The assays are effectively started by the addition of different FRET substrates (20 nM for CathepsinD) and the combination is incubated for one hour. The FRET assay is terminated with by addition of Tris buffer, which raises the pH to neutrality, and the fluorescence is determined. The FRET substrate is a peptide with commercially available fluorophore and quencher, on opposite sides of the BACE cleavage site. […] Proteolytic cleavage of the FRET substrate releases quenching of fluorescence (CathepsinD excitation 500 nm and emission 580 nm).

| SMILES | IC50 [1] | IC50 [2] | IC50 [3] |
| --- | --- | --- | --- |
| COc1cc(F)c2c(c1)[C@]1(CCSC(N)=N1)c1cc(NC(=O)c3cnc(OC)cn3)ccc1O2 [Example 50, N-((4S)-2-amino-5′-fluoro-7′-methoxy-5,6-dihydrospiro[1,3-thiazine-4,9′-xanthen]-2′-yl)-5-methoxy-2-pyrazinecarboxamide] | 46.5 nM | 40.5 nM | > 400000 nM |
| COc1ccc(C(=O)Nc2ccc3c(c2)[C@@]2(CCOC(N)=N2)c2cc(-c4ccnc(F)c4)nc(F)c2O3)nc1 [Example 98, N-((5S)-2′-amino-1-fluoro-3-(2-fluoro-4-pyridinyl)-5′,6′-dihydrospiro[chromeno[2,3-c]pyridine-5,4′-[1,3]oxazin]-7-yl)-5-methoxy-2-pyridinecarboxamide] | – | – | 400000 nM |
| N#Cc1ccc(C(=O)Nc2ccc3c(c2)[C@@]2(CCOC(N)=N2)c2cc(C4=CCOCC4)nc(F)c2O3)nc1 [Example 64, N-((5S)-2′-amino-3-(3,6-dihydro-2H-pyran-4-yl)-1-fluoro-5′,6′-dihydrospiro[chromeno[2,3-c]pyridine-5,4′-[1,3]oxazin]-7-yl)-5-cyano-2-pyridinecarboxamide] | 0.039 nM | 0.74 nM | – |
| CC#CCOc1cnc(C(=O)Nc2ccc3c(c2)[C@@]2(CCOC(N)=N2)c2cc(Cl)nc(F)c2O3)cn1 [Example 48, N-((5S)-2′-amino-3-chloro-1-fluoro-5′,6′-dihydrospiro[chromeno[2,3-c]pyridine-5,4′-[1,3]oxazin]-7-yl)-5-(2-butyn-1-yloxy)-2-pyrazinecarboxamide] | 0.3 nM | – | 151000 nM |
| COc1cc(F)c2c(c1)[C@]1(CCOC(N)=N1)c1cc(NC(=O)c3ccc(Cl)cn3)ccc1O2 [Example 42, N-((4S)-2-amino-5′-fluoro-7′-methoxy-5,6-dihydrospiro[1,3-oxazine-4,9′-xanthen]-2′-yl)-5-chloro-2-pyridinecarboxamide] | 20.5 nM | – | > 400000 nM |
| COc1cnc(C(=O)Nc2ccc3c(c2)[C@@]2(CCOC(N)=N2)c2cc(C4CCOCC4)cc(F)c2O3)cn1 [Example 61, N-((4S)-2-amino-5′-fluoro-7′-(tetrahydro-2H-pyran-4-yl)-5,6-dihydrospiro[1,3-oxazine-4,9′-xanthen]-2′-yl)-5-methoxy-2-pyrazinecarboxamide] | 7.8 nM | – | 379000 nM |
| COc1cc(F)c2c(c1)[C@]1(CCSC(N)=N1)c1cc(NC(=O)c3ccc(Cl)cn3)ccc1O2 [Example 32, N-((4S)-2-amino-5′-fluoro-7′-methoxy-5,6-dihydrospiro[1,3-thiazine-4,9′-xanthen]-2′-yl)-5-chloro-2-pyridinecarboxamide] | 31.8 nM | – | 350000 nM |
| COc1cnc(C(=O)Nc2ccc3c(c2)[C@@]2(CCSC(N)=N2)c2cc(-c4cncc(F)c4)nc(F)c2O3)cn1 [Example 112, N-((5S)-2′-amino-1-fluoro-3-(5-fluoro-3-pyridinyl)-5′,6′-dihydrospiro[chromeno[2,3-c]pyridine-5,4′-[1,3]thiazin]-7-yl)-5-methoxy-2-pyrazinecarboxamide] | 1.2 nM | 2.8 nM | – |
| NC1=N[C@@]2(CCO1)c1cc(NC(=O)c3ccc(Cl)cn3)ccc1Oc1c2cc(-c2ccnc(F)c2)nc1F [Example 91, N-((5S)-2′-amino-1-fluoro-3-(2-fluoro-4-pyridinyl)-5′,6′-dihydrospiro[chromeno[2,3-c]pyridine-5,4′-[1,3]oxazin]-7-yl)-5-chloro-2-pyridinecarboxamide] | 0.4 nM | – | 400000 nM |
| COc1cnc(C(=O)Nc2ccc3c(c2)[C@@]2(CCOC(N)=N2)c2cc(Cl)nc(F)c2O3)cn1 [Example 47, N-((5S)-2′-amino-3-chloro-1-fluoro-5′,6′-dihydrospiro[chromeno[2,3-c]pyridine-5,4′-[1,3]oxazin]-7-yl)-5-methoxy-2-pyrazinecarboxamide] | – | – | 335000 nM |
| NC1=N[C@@]2(CCO1)c1cc(NC(=O)c3ccc(Cl)cn3)ccc1Oc1ncc(-c3ccnc(F)c3)cc12 [Example 90, N-((5S)-2′-amino-3-(2-fluoro-4-pyridinyl)-5′,6′-dihydrospiro[chromeno[2,3-b]pyridine-5,4′-[1,3]oxazin]-7-yl)-5-chloro-2-pyridinecarboxamide] | 0.7 nM | – | 401000 nM |
| Cc1cccnc1Nc1ccc2c(c1)[C@@]1(CCOC(N)=N1)c1cc(Cl)nc(F)c1O2 [Example 41, (5S)-3-chloro-1-fluoro-N~7~-(3-methyl-2-pyridinyl)-5′,6′-dihydrospiro[chromeno[2,3-c]pyridine-5,4′-[1,3]oxazine]-2′,7-diamine] | 279 nM | – | 386000 nM |
| COc1cc(F)c2c(c1)[C@]1(CCOC(N)=N1)c1cc(NC(=O)c3cnc(OC)cn3)ccc1O2 [Example 75, N-((4S)-2-amino-5′-fluoro-7′-methoxy-5,6-dihydrospiro[1,3-oxazine-4,9′-xanthen]-2′-yl)-5-methoxy-2-pyrazinecarboxamide] | 27 nM | – | 400000 nM |
| Cc1nc(C(=O)Nc2ccc3c(c2)[C@@]2(CCOC(N)=N2)c2cc(-c4ccnc(F)c4)nc(F)c2O3)cs1 [Example 99, N-((5S)-2′-amino-1-fluoro-3-(2-fluoro-4-pyridinyl)-5′,6′-dihydrospiro[chromeno[2,3-c]pyridine-5,4′-[1,3]oxazin]-7-yl)-2-methyl-1,3-thiazole-4-carboxamide] | 0.4 nM | 0.8 nM | – |
| NC1=N[C@@]2(CCO1)c1cc(NC(=O)c3ccc(F)cn3)ccc1Oc1c(F)cc(-c3ccnc(F)c3)cc12 [Example 102, N-((4S)-2-amino-5′-fluoro-7′-(2-fluoro-4-pyridinyl)-5,6-dihydrospiro[1,3-oxazine-4,9′-xanthen]-2′-yl)-5-fluoro-2-pyridinecarboxamide] | 5.7 nM | – | – |
| N#Cc1ccc(C(=O)Nc2ccc3c(c2)[C@@]2(CCOC(N)=N2)c2cc(-c4ccnc(F)c4)cc(F)c2O3)nc1 [Example 108, N-((4S)-2-amino-5′-fluoro-7′-(2-fluoro-4-pyridinyl)-5,6-dihydrospiro[1,3-oxazine-4,9′-xanthen]-2′-yl)-5-cyano-2-pyridinecarboxamide] | 0.5 nM | – | 400000 nM |
| COc1ccc(C(=O)Nc2ccc3c(c2)[C@@]2(CCOC(N)=N2)c2cc(OC)cc(F)c2O3)c(F)c1 [Example 77, N-((4S)-2-amino-5′-fluoro-7′-methoxy-5,6-dihydrospiro[1,3-oxazine-4,9′-xanthen]-2′-yl)-2-fluoro-4-methoxybenzamide] | 181 nM | – | 331000 nM |
| NC1=N[C@@]2(CCO1)c1cc(NC(=O)c3ccc(Cl)cn3)ccc1Oc1c2cc(Cl)nc1F [Example 38, N-((5S)-2′-amino-3-chloro-1-fluoro-5′,6′-dihydrospiro[chromeno[2,3-c]pyridine-5,4′-[1,3]oxazin]-7-yl)-5-chloro-2-pyridinecarboxamide] | 31 nM | – | > 400000 nM |
| Cc1nc(C(=O)Nc2ccc3c(c2)[C@@]2(CCOC(N)=N2)c2cc(C4=CCCOC4)nc(F)c2O3)cs1 [Example 85, N-((5S)-2′-amino-3-(5,6-dihydro-2H-pyran-3-yl)-1-fluoro-5′,6′-dihydrospiro[chromeno[2,3-c]pyridine-5,4′-[1,3]oxazin]-7-yl)-2-methyl-1,3-thiazole-4-carboxamide] | 0.08 nM | 0.9 nM | – |
| COc1nc(C2=CCOCC2)cc2c1Oc1ccc(NC(=O)c3ccc(F)cn3)cc1[C@@]21CCOC(N)=N1 [Example 96, N-((5S)-2′-amino-3-(3,6-dihydro-2H-pyran-4-yl)-1-methoxy-5′,6′-dihydrospiro[chromeno[2,3-c]pyridine-5,4′-[1,3]oxazin]-7-yl)-5-fluoro-2-pyridinecarboxamide] | 8.8 nM | – | – |
